What was measured:
Type in all cases: in vivo
[1] = tested on: sedge, umbrella (small-flower umbrella sedge, Cyperus difformis); assay: Test B flooded paddy test; settings: Cyperus difformis, 250 g ai/ha, Flood; 0 to 100 scale where 0 is no effect and 100 is complete control; read-out: Sedge, Umbrella plant response rating
In short: (§1)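 Plants at 2-leaf stage flooded to 3 cm above soil, with compounds applied directly to paddy water and that depth maintained. Plants kept in greenhouse 13–15 d. Visual rating versus controls on a 0 (no effect) to 100 (complete control) scale.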

[2] = tested on: rice (Oryra sativa); assay: Test B flooded paddy test; settings: Oryza sativa, 250 g ai/ha, Flood; 0 to 100 scale where 0 is no effect and 100 is complete control; read-out: Rice plant response rating
In short: as §1

[3] = tested on: barnyardgrass (Echinochloa crus-galli); assay: Test B flooded paddy test; settings: Echinochloa crus-galli, 250 g ai/ha, Flood; 0 to 100 scale where 0 is no effect and 100 is complete control; read-out: Barnyardgrass plant response rating
In short: as §1

[4] = tested on: ducksalad (Heteranthera limosa); assay: Test B flooded paddy test; settings: Heteranthera limosa, 250 g ai/ha, Flood; 0 to 100 scale where 0 is no effect and 100 is complete control; read-out: Ducksalad plant response rating
In short: as §1

[5] = tested on: ragweed (common ragweed, Ambrosia elatior); assay: Test A postemergence; settings: Ambrosia artemisiifolia, post-emergence, 240 h, Postemergence, read-out: Ragweed plant response rating (0 to 100 scale); for pest or weed control at 125 g/ha: 125 g ai/ha, visual rating about 10 d after treatment; for pest or weed control at 31 g/ha: 31 g ai/ha, 0 is no effect, 100 is complete control
In short: (§2)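 Seeds sprayed preemergence with a directed soil spray, or plants at 2 to 10 cm height and one- to two-leaf stage sprayed postemergence, with test chemicals in a non-phytotoxic solvent mixture containing surfactant, in loam soil–sand blend. Injury rated visually against untreated controls after about 10 d in greenhouse, 0 (no effect) to 100 (complete control).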

[6] = tested on: pigweed (Amaranthus retroflexus); assay: Test A postemergence; settings: Amaranthus retroflexus, post-emergence, 240 h, Postemergence, read-out: Pigweed plant response rating (0 to 100 scale); for pest or weed control at 125 g/ha: 125 g ai/ha, visual rating about 10 d after treatment; for pest or weed control at 31 g/ha: 31 g ai/ha, 0 is no effect, 100 is complete control
In short: as §2

[7] = tested on: wheat (Triticum aestivum); assay: Test A postemergence; settings: Triticum aestivum, post-emergence, 240 h, Postemergence, read-out: Wheat plant response rating (0 to 100 scale); for plant injury at 125 g/ha: 125 g ai/ha, visual rating about 10 d after treatment; for plant injury at 31 g/ha: 31 g ai/ha, 0 is no effect, 100 is complete control
In short: as §2

[8] = tested on: giant foxtail (Setaria faberii); assay: Test A postemergence; settings: Setaria faberi, post-emergence, 240 h, Postemergence, read-out: Foxtail, Giant plant response rating (0 to 100 scale); for pest or weed control at 125 g/ha: 125 g ai/ha, visual rating about 10 d after treatment; for pest or weed control at 31 g/ha: 31 g ai/ha, 0 is no effect, 100 is complete control
In short: as §2

[9] = tested on: corn (Zea mays); assay: Test A postemergence; settings: Zea mays, post-emergence, 240 h, Postemergence, read-out: Corn plant response rating (0 to 100 scale); for plant injury at 125 g/ha: 125 g ai/ha, visual rating about 10 d after treatment; for plant injury at 31 g/ha: 31 g ai/ha, 0 is no effect, 100 is complete control
In short: as §2

[10] = tested on: Galium (catchweed bedstraw, Galium aparine); assay: Test A postemergence; settings: Galium, post-emergence, 240 h, Postemergence, read-out: Galium plant response rating (0 to 100 scale); for pest or weed control at 125 g/ha: 125 g ai/ha, visual rating about 10 d after treatment; for pest or weed control at 31 g/ha: 31 g ai/ha, 0 is no effect, 100 is complete control
In short: as §2

[11] = tested on: Kochia (Kochia scoparia); assay: Test A postemergence; settings: Bassia scoparia, post-emergence, 240 h, Postemergence, read-out: Kochia plant response rating (0 to 100 scale); for pest or weed control at 125 g/ha: 125 g ai/ha, visual rating about 10 d after treatment; for pest or weed control at 31 g/ha: 31 g ai/ha, 0 is no effect, 100 is complete control
In short: as §2

[12] = tested on: blackgrass (Alopecurus myosuroides); assay: Test A postemergence; settings: Alopecurus myosuroides, post-emergence, 240 h, Postemergence, read-out: Blackgrass plant response rating (0 to 100 scale); for pest or weed control at 125 g/ha: 125 g ai/ha, visual rating about 10 d after treatment; for pest or weed control at 31 g/ha: 31 g ai/ha, 0 is no effect, 100 is complete control
In short: as §2

[13] = tested on: ryegrass, Italian (Italian ryegrass, Lolium multiflorum); assay: Test A postemergence; settings: Lolium multiflorum, post-emergence, 240 h, Postemergence, read-out: Ryegrass, Italian plant response rating (0 to 100 scale); for pest or weed control at 125 g/ha: 125 g ai/ha, visual rating about 10 d after treatment; for pest or weed control at 31 g/ha: 31 g ai/ha, 0 is no effect, 100 is complete control
In short: as §2

[14] = tested on: barnyardgrass (Echinochloa crus-galli); assay: Test A postemergence; settings: Echinochloa crus-galli, post-emergence, 240 h, Postemergence; for pest or weed control at 125 g/ha: 125 g ai/ha, visual rating about 10 d after treatment, read-out: Barnyardgrass plant response rating (0 to 100 scale, 0 no effect, 100 complete control); for pest or weed control at 31 g/ha: 31 g ai/ha, 0 is no effect, 100 is complete control, read-out: Barnyardgrass plant response rating (0 to 100 scale)
In short: as §2

[15] = tested on: ragweed (common ragweed, Ambrosia elatior); assay: Test A preemergence; settings: Ambrosia artemisiifolia, pre-emergence, 240 h, 0 to 100 scale where 0 is no effect and 100 is complete control, read-out: Ragweed plant response rating; for pest or weed control at 31 g/ha: 31 g ai/ha, Preemergence; for pest or weed control at 125 g/ha: 125 g ai/ha, preemergence, visual injury rating, approximately 10 d
In short: as §2

[16] = tested on: pigweed (Amaranthus retroflexus); assay: Test A preemergence; settings: Amaranthus retroflexus, pre-emergence, 240 h, 0 to 100 scale where 0 is no effect and 100 is complete control, read-out: Pigweed plant response rating; for pest or weed control at 31 g/ha: 31 g ai/ha, Preemergence; for pest or weed control at 125 g/ha: 125 g ai/ha, preemergence, visual injury rating, approximately 10 d
[17] = tested on: giant foxtail (Setaria faberii); assay: Test A preemergence; settings: Setaria faberi, pre-emergence, 240 h, 0 to 100 scale where 0 is no effect and 100 is complete control, read-out: Foxtail, Giant plant response rating; for pest or weed control at 31 g/ha: 31 g ai/ha, Preemergence; for pest or weed control at 125 g/ha: 125 g ai/ha, preemergence, visual injury rating, approximately 10 d
In short: as §2

[18] = tested on: Kochia (Kochia scoparia); assay: Test A preemergence; settings: Bassia scoparia, pre-emergence, 240 h, 0 to 100 scale where 0 is no effect and 100 is complete control, read-out: Kochia plant response rating; for pest or weed control at 31 g/ha: 31 g ai/ha, Preemergence; for pest or weed control at 125 g/ha: 125 g ai/ha, preemergence, visual injury rating, approximately 10 d
In short: as §2

[19] = tested on: ryegrass, Italian (Italian ryegrass, Lolium multiflorum); assay: Test A preemergence; settings: Lolium multiflorum, pre-emergence, 240 h, 0 to 100 scale where 0 is no effect and 100 is complete control, read-out: Ryegrass, Italian plant response rating; for pest or weed control at 31 g/ha: 31 g ai/ha, Preemergence; for pest or weed control at 125 g/ha: 125 g ai/ha, preemergence, visual injury rating, approximately 10 d
In short: as §2

[20] = tested on: barnyardgrass (Echinochloa crus-galli); assay: Test A preemergence; settings: Echinochloa crus-galli, pre-emergence, 240 h, 0 to 100 scale where 0 is no effect and 100 is complete control, read-out: Barnyardgrass plant response rating; for pest or weed control at 31 g/ha: 31 g ai/ha, Preemergence; for pest or weed control at 125 g/ha: 125 g ai/ha, preemergence, visual injury rating, approximately 10 d
In short: as §2

SMILES | pest or weed control at 250 g/ha [1] | pest or weed control at 250 g/ha [2] | pest or weed control at 250 g/ha [3] | pest or weed control at 250 g/ha [4] | pest or weed control at 125 g/ha [5] | pest or weed control at 31 g/ha [5] | pest or weed control at 125 g/ha [6] | pest or weed control at 31 g/ha [6] | plant injury at 125 g/ha [7] | plant injury at 31 g/ha [7] | pest or weed control at 125 g/ha [8] | pest or weed control at 31 g/ha [8] | plant injury at 125 g/ha [9] | plant injury at 31 g/ha [9] | pest or weed control at 125 g/ha [10] | pest or weed control at 31 g/ha [10] | pest or weed control at 125 g/ha [11] | pest or weed control at 31 g/ha [11] | pest or weed control at 125 g/ha [12] | pest or weed control at 31 g/ha [12] | also measured
CN1C[C@H](c2csc3c2CCC3)[C@@H](C(=O)Nc2ccccc2F)C1=O [Compound 1277] | 0% | 25% | 40% | 60% | 30% | 30% | 0% | 0% | 0% | 0% | 70% | 50% | 0% | 0% | 0% | 0% | 0% | 0% | 0% | 0% | pest or weed control at 125 g/ha [13]: 0%; pest or weed control at 31 g/ha [13]: 0%; pest or weed control at 125 g/ha [14]: 80%; pest or weed control at 31 g/ha [14]: 30%; pest or weed control at 31 g/ha [15]: 0%; pest or weed control at 125 g/ha [15]: 0%; pest or weed control at 31 g/ha [16]: 0%; pest or weed control at 125 g/ha [16]: 0%; pest or weed control at 31 g/ha [17]: 90%; pest or weed control at 125 g/ha [17]: 100%; pest or weed control at 31 g/ha [18]: 0%; pest or weed control at 125 g/ha [18]: 0%; pest or weed control at 31 g/ha [19]: 0%; pest or weed control at 125 g/ha [19]: 0%; pest or weed control at 31 g/ha [20]: 80%; pest or weed control at 125 g/ha [20]: 100%
CN1C[C@H](c2ccc(C(F)(F)F)cc2)[C@@H](C(=O)Nc2ccccc2-n2cccn2)C1=O [Compound 1283] | 0% | 0% | 0% | 0% | 0% | 0% | 0% | 0% | 0% | 0% | 0% | 0% | 0% | 0% | 0% | 0% | 0% | 0% | 0% | 0% | pest or weed control at 125 g/ha [13]: 0%; pest or weed control at 31 g/ha [13]: 0%; pest or weed control at 125 g/ha [14]: 0%; pest or weed control at 31 g/ha [14]: 0%; pest or weed control at 31 g/ha [15]: 0%; pest or weed control at 125 g/ha [15]: 0%; pest or weed control at 31 g/ha [16]: 0%; pest or weed control at 125 g/ha [16]: 0%; pest or weed control at 31 g/ha [17]: 0%; pest or weed control at 125 g/ha [17]: 0%; pest or weed control at 31 g/ha [18]: 0%; pest or weed control at 125 g/ha [18]: 0%; pest or weed control at 31 g/ha [19]: 0%; pest or weed control at 125 g/ha [19]: 0%; pest or weed control at 31 g/ha [20]: 0%; pest or weed control at 125 g/ha [20]: 0%

Reference: patent publication US12077503B2, “Substituted cyclic amides and their use as herbicides” (FMC CORPORATION, priority 2015, dated 2024)
